These are literature values, as cited in US10052352B2, “Therapeutic application of parenteral krill oil” (STABLE SOLUTIONS LLC, priority 2011, dated 2018).

The conditions of the data set: free acid.

Each structure is given as a SMILES string.

Take `O=C(c1ccccc1)c1ccc2n1CCC2C(=O)O` (stereo not shown) [ketorolac]: the water solubility result is recorded as “highly water insoluble”.
